{
  "source": "patent US20220096473A1",
  "about": "“METHOD FOR TREATING AN ACUTE MYELOID LEUKEMIA” (PTC THERAPEUTICS, INC., priority 2019, published 2022)",
  "key": {"[1]": {"test_system": "MOLT human acute lymphoblastic leukemia (ALL) tumor cells", "experiment": "ALL mouse model, IV-inoculated MOLT human ALL tumor cells in NOD-SCID mice, survival", "assay_type": "in vivo", "settings": "vehicle 70 days", "method": "FIG. 6. Shown is a survival curve for an in vivo ALL (Acute Lymphocytic Leukemia) MOLT-4 (CD3 […]) xenograft tumor NSG mouse model after up to 160 days of treatment with Compound 2 vs. vs. mice treated with vehicle, Compound 1, doxorubicin (Dox) and cytarabine (Ara-C). Under various dosing regimens.\nMale NOD-SCID mice were inoculated with MOLT human acute lymphoblastic leukemia (ALL) tumor cells from ATCC (1×10^7 cells in 200 μL PBS) by intravenous (IV) injection of 0.2 ml/mouse. Seven days after tumor inoculation, mice were randomized into seven groups of five mice per group, and each group was dosed as follows: (Group 1) orally administered vehicle of 0.5% HPMC and 0.1% Tween 80 daily, (Group 2) orally administered 10 mg/kg Compound 1 twice per week, (Group 3) orally administered 10 mg/kg Compound 2 daily, (Group 4) administered 1 mg/kg doxorubicin by intraperitoneal (IP) injection once per week, (Group 5) administered 0.5 mg/kg doxorubicin by IP injection once per week, (Group 6) administered 50 mg/kg Ara-C twice per week by IP injection, and (Group 7) administered 70 mg/kg Ara-C by IP injection once per week."}, "P31-Fujioka cell line": {"test_system": "P31-Fujioka cell line", "experiment": "P31-Fujioka cell line xenograft survival in immunodeficient NRG-SGM3 mice", "assay_type": "in vivo, mouse", "settings": "oral Compound 1 from ten days after injection, up to 34 days of treatment, n=5 mice per group, P<0.002", "method": "FIG. 1. Shown is a survival curve for an in vivo P31-Fujioka cell line xenograft tumor […] mouse model after up to 34 days of treatment with Compound 1 vs. vehicle treated animals (n=5 mice per group, *P<0.002).\nImmunodeficient mice (NRG-SGM3) were injected with the P31-Fujioka cell line. Ten days after injection, engraftment of P31 cells in mice was confirmed by flow-cytometric assessment of the human CD45 marker (data not shown). One cohort of mice was orally administered Compound 1 and an age and engraftment matched hohort was administered vehicle control."}, "[2]": {"test_system": "MOLM13 human AML tumor cells", "experiment": "AML mouse model, IV-inoculated human AML tumor cells in NOD-SCID mice, survival", "assay_type": "in vivo", "method": "FIG. 3. Shown is a survival curve for an in vivo AML NSG mouse model after up to 75 days of treatment with Compound 1 vs. vehicle treated mice (n=5 in vehicle group and n=2 in Compound 1 group).\nFIG. 5. Shown is a survival curve for an in vivo AML NSG mouse model after up to 80 days of treatment with a combination of Compound 1 and Compound 2 vs. mice treated with vehicle, Compound 1 alone and Compound 2 alone\nThe following study was conducted in a mouse model of acute myeloid leukemia (AML) based on intravenous (IV) injection of human […] into male non-obese diabetic (NOD) severe combined immunodeficiency (SID) mice. MOLT-4 cells are CD3 positive. The NOD-SCID mice were obtained from Jackson Laboratory, Bar Harbor Me.\nMale NOD-SCID mice were inoculated with MOLM13 human AML tumor cells from ATCC (5×10^6 cells in 200 μL PBS) by intravenous (IV) injection of 0.2 ml/mouse. Three days after tumor inoculation, mice were randomized into four groups of five mice per group, and each group was dosed as follows once each day: (Group 1) orally administered vehicle (0.5% HPMC), (Group 2) orally administered 12.5 mg/kg of Compound 1 in HPMC, (Group 3) orally administered 10 mg/kg of Compound 2 in HPMC, and (Group 4) orally administered a combination of 12.5 mg/kg of Compound 1 and 10 mg/kg of Compound 2 in HPMC for up to 75 days."}, "[3]": {"test_system": "microtubule polymerization", "experiment": "Mechanistic studies of microtubule polymerization", "assay_type": "biochemical", "text": "In addition, Compound 1 combines additively or synergistically with standard clinical regimens, yielding potent and durable cancer regression."}, "CALM-AF10-mediated AML": {"test_system": "CALM-AF10-mediated AML", "experiment": "CALM-AF10-mediated AML leukemogenesis in mouse and human models", "settings": "in vitro and in vivo"}, "p53 mutant mediated AML": {"test_system": "p53 mutant mediated AML", "settings": "cited from earlier work"}, "leukemia cell growth": {"test_system": "leukemia cell growth", "settings": "mouse xenograft models; cited from earlier work"}},
  "data": [
    {"smiles": "COc1cccc2c1C(=O)c1c(O)c3c(c(O)c1C2=O)C[C@@](O)(C(=O)CO)C[C@@H]3O[C@H]1C[C@H](N)[C@H](O)[C@H](C)O1", "note": "[doxorubicin]", "values": [
      {"measurement": "maximum number of days of survival", "setting": "[1]; Group 4, 1 mg/kg IP once per week", "result": 40, "unit": "days"},
      {"measurement": "maximum number of days of survival", "setting": "[1]; Group 5, 0.5 mg/kg IP once per week", "result": 40, "unit": "days"}
    ]},
    {"smiles": "Cc1nc2ccc(F)cc2n1-c1nc(N)c(F)c(Nc2ccc(C(F)(F)F)cc2)n1", "note": "[Compound 1, 5-fluoro-2-(6-fluoro-2-methyl-1H-benzo[d]imidazol-1-yl)-N^4-[4-(trifluoromethyl)phenyl]pyrimidine-4,6-diamine]", "values": [
      {"measurement": "latency of disease (survival curve) vs vehicle control", "setting": "P31-Fujioka cell line", "result": "significantly delayed the latency of disease"},
      {"measurement": "survival vs mice administered Compound 2 alone", "setting": "[2]; 12.5 mg/kg Compound 1 orally once each day", "result": "survived significantly longer"},
      {"measurement": "survival (prolongation of life) vs vehicle", "setting": "[2]; 12.5 mg/kg orally once each day in HPMC, up to 75 days", "result": "significant prolongation of life"},
      {"measurement": "maximum number of days of survival", "setting": "[1]; Group 2, 10 mg/kg orally twice per week", "result": 65, "unit": "days"},
      {"measurement": "microtubule polymerization", "setting": "[3]", "result": "inhibit microtubule polymerization"},
      {"measurement": "leukemogenesis", "setting": "CALM-AF10-mediated AML", "result": "impairs leukemogenesis in vitro and in vivo"},
      {"measurement": "MCL-1 expression", "setting": "p53 mutant mediated AML; p53 mutant mediated AML", "result": "reduced MCL-1 expression"},
      {"measurement": "induction of apoptosis", "setting": "p53 mutant mediated AML; patient-derived CD34+CD38low/- stem/progenitor cells", "result": "Apoptosis was induced in a p53-independent manner"},
      {"measurement": "in vivo anti-leukemia activity", "setting": "leukemia cell growth", "result": "inhibited leukemia cell growth in vivo while sparing normal hematopoietic cells"}
    ]},
    {"smiles": "Nc1ccn([C@@H]2O[C@H](CO)[C@@H](O)[C@@H]2O)c(=O)n1", "note": "[Ara-C, cytarabine]", "values": [
      {"measurement": "maximum number of days of survival", "setting": "[1]; Group 6, 50 mg/kg IP twice per week", "result": 65, "unit": "days"},
      {"measurement": "maximum number of days of survival", "setting": "[1]; Group 7, 70 mg/kg IP once per week", "result": 70, "unit": "days"}
    ]},
    {"smiles": "COc1ccc([C@H]2c3[nH]c4ccc(Cl)cc4c3CCN2C(=O)Oc2ccc(Cl)cc2)cc1", "note": "[Compound 2, 4-chlorophenyl (S)-6-chloro-1-(4-methoxyphenyl)-1,3,4,9-tetrahydro-2H-pyrido[3,4-b]indole-2-carboxylate]", "values": [
      {"measurement": "maximum number of days of survival", "setting": "[1]; Group 3, 10 mg/kg orally daily", "result": 160, "unit": "days"}
    ]}
  ]
}
